The source of these data is patent publication US20260250269A1, “APOPTOSIS INHIBITOR SALTS FOR CANCER” (priority 2022, published 2026).

Where “and” joins values, the source holds several entries; their conditions need not be identical. Equal entries are not always repeated. Where two headings read alike, the source gives them in different places.

Series [1] in a line: Competitive equilibration experiments of Form A and Form B. In kind it is physicochemical. On the procedure:
About 5 mg of Form A and about 5 mg of the mixture of Form A and Form B were added to 0.2 mL saturated solutions in following solvents: water, ethanol, acetone, acetonitrile, ethyl acetate, and pyridine/water (1/9 v/v). Obtained suspensions were stirred at 25° C. and 50° C., respectively, for a duration between 4 days to 4 weeks. Solid parts (wet cakes) were isolated by centrifugation filtration and investigated by XRPD.

The conditions of series [2]: for Solubility / Solubility (in words): 37° C.; for Solubility: 24 hours; for Solubility (in words): PBS buffer.
A short description of series [3]: Solid-state thermal stability of the pamoate salt Form B. The series is classed as physicochemical. Here is the method: Form B was placed at 25° C./92% relative humidity (RH) in an open container, at 40° C./75% RH in an open container, and at 60° C. in a tight container for 1 week. Samples were characterized by XRPD and HPLC and inspected for appearance including color change.

The nature of series [4]: Compression, dry grinding and wet granulation simulation experiments. In kind it is physicochemical. On the procedure: Compression: About 50 mg of Form B was compressed for 5 minutes under 10 MPa with a hydraulic press. Potential form change and degree of crystallinity were evaluated by XRPD.
Dry Grinding: About 20 mg of Form B was ground manually with a mortar and a pestle for 5 min. Potential form change and degree of crystallinity were evaluated by XRPD.
Wet Granulation: Water or ethanol was added drop wise to about 20 mg of Form B until the sample was wetted sufficiently. Wet sample was ground gently with a mortar and a pestle for 3 min. Post granulation sample was dried under ambient condition for 10 min. Potential form change and degree of crystallinity were evaluated by XRPD.

Series [5] is described as follows: Hygroscopicity of Form B by dynamic vapor sorption (DVS). In kind it is physicochemical. On the procedure: Water sorption and desorption behavior of Form B was investigated by dynamic vapor sorption (DVS) at 25° C. with a cycle of 40-0-95-0-40% RH, dm/dt 0.002, minimum equilibration time of 60 min and maximum equilibration time 360 min.
A short description of series [6]: Solid form conversion on drying, heating or storage (XRPD). In kind it is physicochemical.
Setting [7] is: after solubility test in mouse plasma.
[8] abbreviates: after solubility test in pH 7.4 PBS buffer.
Setting [9] is: 25° C./92% RH open container, 1 week.
Where [10] appears, read: 40° C./75% RH open container, 1 week.
[11] abbreviates: 60° C. in a tight container, 1 week.
Setting [12] is: relative humidity 0.0 at 25° C.
[13] abbreviates: relative humidity 10.0 at 25° C.
[14] abbreviates: relative humidity 20.0 at 25° C.
[15] abbreviates: relative humidity 30.0 at 25° C.
[16] abbreviates: relative humidity 40.0 at 25° C.
Where [17] appears, read: relative humidity 50.0 at 25° C.
[18] abbreviates: relative humidity 60.0 at 25° C.
Setting [19] is: relative humidity 70.0 at 25° C.
The mark [20] stands for this setting: relative humidity 80.0 at 25° C.
The mark [21] stands for this setting: relative humidity 90.0 at 25° C.
Setting [22] is: relative humidity 95.0 at 25° C.

In general, Solubility refers to the concentration that dissolves in the medium under given conditions. Low values mean a poorly soluble substance, high ones a readily soluble substance. Consider `COCCn1c2c([n+](Cc3cnccn3)c1C)C(=O)c1ccccc1C2=O.COCCn1c2c([n+](Cc3cnccn3)c1C)C(=O)c1ccccc1C2=O.O=C([O-])c1cc2ccccc2c(Cc2c(O)c(C(=O)[O-])cc3ccccc23)c1O` [Form A], for which the “Solid form conversion in competitive experiments” value in series [1] (in ethanol, acetone, ACN and pyridine/water) was “converted to Form B”. Also, the “Form change by XRPD after solubility test” value in series [2] is “no form change”. Besides, in series [2], the “Water solubility (in words)” value is “extremely low”. For the same molecule, the “XRPD of residual solids” value in series [2] (setting [7]), in series [2] (setting [8]) and in series [2] (after solubility test in water) was “Form A” each time. The Solubility in series [2] (mouse plasma) was 436 µg/mL and 403 µg/mL; in series [2] (pH 7.4, PBS buffer), 84 µg/mL and 86 µg/mL; in series [2] (water), 12 µg/mL and 13 µg/mL. The “Solubility (in words)” value in series [2] (water, mouse plasma) is listed as “comparable low solubility”.

With `COCCn1c2c([n+](Cc3cnccn3)c1C)C(=O)c1ccccc1C2=O.COCCn1c2c([n+](Cc3cnccn3)c1C)C(=O)c1ccccc1C2=O.O=C([O-])c1cc2ccccc2c(Cc2c(O)c(C(=O)[O-])cc3ccccc23)c1O` [Form B], the “Appearance (Color) change” value was “None” in series [3] (setting [9]), “None” in series [3] (setting [10]), “none” in series [3] (setting [11]) and “None” in series [3] (Initial). Also, the “Purity by HPLC” value in series [3] (setting [9]) turned out to be 99.4%; in series [3] (setting [10]), 99.5%; in series [3] (setting [11]), 99.4%; in series [3] (Initial), 99.3%. In addition, the XRPD entry in series [3] (setting [9]), in series [3] (setting [10]), in series [3] (setting [11]) and in series [3] (Initial) was “Form B” throughout. Also, the “Physical and chemical stability” value in series [3] (25° C./92% RH, 40° C./75% RH, 60° C., 1 week) was “physically stable and chemically stable”. The “Form change and crystallinity by XRPD after compression” value in series [4] (5 minutes under 10 MPa, hydraulic press) is “no form change and no obvious crystallinity decrease”. For the same molecule, the “Form change and crystallinity by XRPD after dry grinding” value in series [4] (ground manually with mortar and pestle for 5 min) is “no form change and slight crystallinity decrease”. Also, the “Form change and crystallinity by XRPD after wet granulation” value in series [4] (water or ethanol, ground 3 min, dried 10 min) was “no form change and no obvious crystallinity decrease”. In series [1] (among Forms A-J), the “Relative stability among solid forms” value was “most stable form among Forms A-J”. In addition, the “Form change by XRPD after solubility test” value in series [2] is recorded as “no form change”. Moreover, the “XRPD of residual solids” value in series [2] (setting [7]), in series [2] (setting [8]) and in series [2] (after solubility test in water) was “Form B” throughout. For the same molecule, the Solubility in series [2] (mouse plasma) is 342 µg/mL and 344 µg/mL; in series [2] (pH 7.4, PBS buffer), 78 µg/mL; in series [2] (water) it was 14 µg/mL and 13 µg/mL. In addition, in series [2] (water, mouse plasma), the “Solubility (in words)” value is “comparable low solubility”. Also, the “Solid form by XRPD after the DVS test” value in series [5] is “still Form B”. Further, the “Hygroscopicity (in words)” value in series [5] (DVS at 25° C.) was “slightly hygroscopic”. The “1st desorption weight % change” value in series [5] (setting [12]) was 0.02 weight %; in series [5] (setting [13]) it was 0.06 weight %; in series [5] (setting [14]) it was 0.09 weight %; in series [5] (setting [15]) it was 0.13 weight %; in series [5] (setting [16]) it was 0.16 weight %. Also, the “1st sorption weight % change” value in series [5] (setting [12]) amounted to 0.02 weight %; in series [5] (setting [13]), 0.06 weight %; in series [5] (setting [14]) it was 0.08 weight %; in series [5] (setting [15]) it was 0.11 weight %; in series [5] (setting [16]), 0.12 weight %; in series [5] (setting [17]) it was 0.15 weight %. Also, the “1st sorption weight % change” value in series [5] (setting [18]) is 0.17 weight %; in series [5] (setting [19]), 0.20 weight %; in series [5] (setting [20]), 0.23 weight %; in series [5] (setting [21]), 0.35 weight %; in series [5] (setting [22]), 0.64 weight %. In addition, the “2nd desorption weight % change” value is on record as 0.00 weight % in series [5] (setting [12]); 0.05 weight % in series [5] (setting [13]); 0.08 weight % in series [5] (setting [14]); 0.10 weight % in series [5] (setting [15]); 0.13 weight % in series [5] (setting [16]); 0.16 weight % in series [5] (setting [17]). For the same molecule, the “2nd desorption weight % change” value in series [5] (setting [18]) is recorded as 0.18 weight %; in series [5] (setting [19]) it was 0.21 weight %; in series [5] (setting [20]), 0.25 weight %; in series [5] (setting [21]), 0.38 weight %; in series [5] (setting [22]) it was 0.64 weight %. Also, the “2nd sorption weight % change” value is given as 0.00 weight % in series [5] (setting [12]); 0.04 weight % in series [5] (setting [13]); 0.06 weight % in series [5] (setting [14]); 0.08 weight % in series [5] (setting [15]); 0.10 weight % in series [5] (setting [16]). For the same molecule, the Water absorbed entry in series [5] (up to 95% RH at 25° C.) was “about 0.64%”.

Take `CCO.COCCn1c2c([n+](Cc3cnccn3)c1C)C(=O)c1ccccc1C2=O.COCCn1c2c([n+](Cc3cnccn3)c1C)C(=O)c1ccccc1C2=O.O=C([O-])c1cc2ccccc2c(Cc2c(O)c(C(=O)[O-])cc3ccccc23)c1O` [Form C]: the Solid form conversion result in series [6] (exposure to ambient condition about 2 hours and drying at 25° C. under vacuum about 2 hours) is “converted to a mixture of Form A and Form B”.

For `CC(=O)N(C)C.COCCn1c2c([n+](Cc3cnccn3)c1C)C(=O)c1ccccc1C2=O.COCCn1c2c([n+](Cc3cnccn3)c1C)C(=O)c1ccccc1C2=O.O=C([O-])c1cc2ccccc2c(Cc2c(O)c(C(=O)[O-])cc3ccccc23)c1O` [Form G], in series [6] (storing at 25° C. for about 1 day), the “Solid form obtained on storage” value is “Form H”.

Consider `CC(=O)N(C)C.COCCn1c2c([n+](Cc3cnccn3)c1C)C(=O)c1ccccc1C2=O.COCCn1c2c([n+](Cc3cnccn3)c1C)C(=O)c1ccccc1C2=O.O=C([O-])c1cc2ccccc2c(Cc2c(O)c(C(=O)[O-])cc3ccccc23)c1O` [Form H], for which the Solid form conversion result in series [6] (after heating to 170° C.) was “converted to a mixture of Form A and Form B”.
